# From ChEMBL document CHEMBL1201862, “PubChem BioAssay data set” (2004)
# Active and inactive are the calls of the source.
# How the values were obtained:
# [1] = target: Mu-type opioid receptor (Homo sapiens, UniProt P35372); type: functional, cell-based;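 also: U2OS cells with beta-arrestin recruitment to OPRM1 by beta-gal complementation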
# [2] = target: 5-hydroxytryptamine receptor 2A (Mus musculus, UniProt P35363); type: functional, cell-based;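 also: CHO-K1 cells with tagged receptor and beta-arrestin; agonist potency measured as compound-induced activation of the receptor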
# Sequence of 5-hydroxytryptamine receptor 2A (P35363 whole entry): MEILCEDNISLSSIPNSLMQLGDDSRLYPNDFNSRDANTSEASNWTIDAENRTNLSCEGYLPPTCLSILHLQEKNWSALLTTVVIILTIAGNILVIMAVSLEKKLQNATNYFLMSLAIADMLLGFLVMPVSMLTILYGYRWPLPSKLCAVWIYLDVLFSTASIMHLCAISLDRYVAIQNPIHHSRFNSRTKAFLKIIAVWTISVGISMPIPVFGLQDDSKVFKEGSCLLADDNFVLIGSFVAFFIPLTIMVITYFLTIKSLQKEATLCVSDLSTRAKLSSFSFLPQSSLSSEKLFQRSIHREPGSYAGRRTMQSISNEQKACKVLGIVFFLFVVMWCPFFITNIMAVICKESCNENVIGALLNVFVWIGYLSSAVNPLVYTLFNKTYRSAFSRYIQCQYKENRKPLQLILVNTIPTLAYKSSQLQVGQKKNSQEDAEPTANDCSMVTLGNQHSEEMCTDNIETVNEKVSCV
# [3] = NIH-3T3 fibroblast cytotoxicity, dose response, cytotoxicity control, cell-based, fluorescence, Alamar Blue, secondary assay (AID 2327); type: functional;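 also: NIH-3T3 mouse fibroblasts cultured with fluconazole at 8 µg/mL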
# [4] = C. albicans growth with fluconazole, confirmation, fluorescence, retest (AID 2467); type: functional, cell-based
# [5] = target: T1, Sentrin-specific protease 1 (Homo sapiens, UniProt Q9P0U3); test: potency of human SENP1 inhibitors, dose response, biochemical, kinetic FRET (AID 651697); type: functional; conditions: read-out: IC50_Mean
# T1 sequence (Q9P0U3 whole entry): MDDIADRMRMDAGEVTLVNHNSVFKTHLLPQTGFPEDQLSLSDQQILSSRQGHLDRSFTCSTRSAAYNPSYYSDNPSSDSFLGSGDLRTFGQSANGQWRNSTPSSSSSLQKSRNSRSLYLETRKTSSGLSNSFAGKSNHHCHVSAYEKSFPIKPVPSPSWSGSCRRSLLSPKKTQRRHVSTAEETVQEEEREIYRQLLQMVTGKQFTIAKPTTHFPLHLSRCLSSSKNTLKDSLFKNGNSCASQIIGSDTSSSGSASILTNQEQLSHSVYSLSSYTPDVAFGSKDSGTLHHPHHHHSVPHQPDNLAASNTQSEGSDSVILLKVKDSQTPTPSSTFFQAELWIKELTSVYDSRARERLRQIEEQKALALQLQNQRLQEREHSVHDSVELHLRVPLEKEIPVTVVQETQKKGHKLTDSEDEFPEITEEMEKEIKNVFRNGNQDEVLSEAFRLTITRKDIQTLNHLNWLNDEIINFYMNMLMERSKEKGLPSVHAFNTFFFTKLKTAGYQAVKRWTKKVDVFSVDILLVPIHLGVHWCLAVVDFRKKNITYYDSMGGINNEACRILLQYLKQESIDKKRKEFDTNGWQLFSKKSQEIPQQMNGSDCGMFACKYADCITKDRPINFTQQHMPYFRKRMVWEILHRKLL
# [6] = target: T2, Methionyl-tRNA synthetase, putative (Trypanosoma brucei brucei, UniProt Q38C91); type: functional, Trypanosoma brucei brucei strain 927/4 GUTat10.1
# T2 sequence (Q38C91 whole entry): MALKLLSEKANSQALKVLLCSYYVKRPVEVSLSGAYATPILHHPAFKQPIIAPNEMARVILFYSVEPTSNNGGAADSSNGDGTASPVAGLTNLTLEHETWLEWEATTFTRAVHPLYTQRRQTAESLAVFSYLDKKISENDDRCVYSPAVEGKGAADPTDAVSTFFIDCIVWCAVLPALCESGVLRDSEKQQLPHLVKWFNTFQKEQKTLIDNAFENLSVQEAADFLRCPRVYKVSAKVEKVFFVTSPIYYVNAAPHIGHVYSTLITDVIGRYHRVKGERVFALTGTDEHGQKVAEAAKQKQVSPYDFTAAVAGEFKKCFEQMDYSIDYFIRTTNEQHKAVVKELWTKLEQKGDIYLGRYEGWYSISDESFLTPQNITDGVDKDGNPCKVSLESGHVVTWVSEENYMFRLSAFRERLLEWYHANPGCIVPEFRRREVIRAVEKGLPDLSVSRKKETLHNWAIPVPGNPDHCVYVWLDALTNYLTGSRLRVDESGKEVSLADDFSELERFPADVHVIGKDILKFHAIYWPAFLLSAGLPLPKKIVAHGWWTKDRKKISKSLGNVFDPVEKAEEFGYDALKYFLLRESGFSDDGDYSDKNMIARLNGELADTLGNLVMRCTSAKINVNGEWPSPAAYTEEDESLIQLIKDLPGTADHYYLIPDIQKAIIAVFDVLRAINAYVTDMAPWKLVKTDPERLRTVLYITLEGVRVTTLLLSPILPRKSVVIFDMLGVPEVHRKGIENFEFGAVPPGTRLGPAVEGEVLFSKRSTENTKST
# [7] = Counterscreen for inhibitors of Trypanosoma brucei methionyl tRNA synthetase (MetRS): Luminescence-based cell-based high throughput dose response assay to identify compounds that are cytotoxic to Jurkat human T lymphocyte cells.; type: functional
# [8] = target: T2, Methionyl-tRNA synthetase, putative; type: functional, Trypanosoma brucei brucei strain 927/4 GUTat10.1; remark: listed apart in the source
# [9] = target: T1, Sentrin-specific protease 1; test: Dose response confirmation of small molecule inhibitors of the catalytic domain of the SUMO protease, SENP1 in a FRET assay.; type: functional; conditions: read-out: IC50_Mean
# [10] = target: T3, Corticotropin-releasing factor receptor 2/Corticotropin-releasing factor-binding protein (Homo sapiens, UniProt P24387+Q13324); test: activators of CRF receptor 2 with binding protein – uHTS hits, confirmation (AID 602473); type: functional; conditions: read-out: EC50_Mean
# T3 sequence (Q13324 whole entry): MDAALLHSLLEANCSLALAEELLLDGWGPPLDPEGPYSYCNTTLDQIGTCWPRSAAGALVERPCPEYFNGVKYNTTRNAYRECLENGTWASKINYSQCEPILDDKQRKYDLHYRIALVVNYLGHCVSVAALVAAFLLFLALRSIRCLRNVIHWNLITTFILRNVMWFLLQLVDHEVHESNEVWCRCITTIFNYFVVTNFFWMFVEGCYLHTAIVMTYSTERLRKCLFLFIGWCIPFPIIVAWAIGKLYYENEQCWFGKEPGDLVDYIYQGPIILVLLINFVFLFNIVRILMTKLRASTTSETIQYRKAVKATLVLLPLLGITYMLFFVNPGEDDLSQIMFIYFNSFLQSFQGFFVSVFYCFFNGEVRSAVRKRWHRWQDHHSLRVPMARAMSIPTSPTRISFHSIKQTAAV
# T3 sequence (P24387 whole entry): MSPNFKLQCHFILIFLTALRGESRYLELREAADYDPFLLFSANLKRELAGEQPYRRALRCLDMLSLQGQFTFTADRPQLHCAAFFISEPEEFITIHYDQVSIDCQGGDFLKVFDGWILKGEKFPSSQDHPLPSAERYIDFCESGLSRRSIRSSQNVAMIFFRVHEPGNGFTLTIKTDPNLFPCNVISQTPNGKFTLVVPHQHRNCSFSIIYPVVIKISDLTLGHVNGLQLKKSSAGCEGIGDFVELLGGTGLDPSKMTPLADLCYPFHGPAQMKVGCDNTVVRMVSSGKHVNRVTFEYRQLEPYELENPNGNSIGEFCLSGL
# [11] = target: T4, Small ubiquitin-related modifier 1 (Homo sapiens, UniProt P63165); test: inhibitors of SUMO1 peptide binding, dose response, biochemical, fluorescence polarization, uHTS hits (AID 624382); type: functional; conditions: read-out: IC50_Mean
# T4 sequence (P63165 whole entry): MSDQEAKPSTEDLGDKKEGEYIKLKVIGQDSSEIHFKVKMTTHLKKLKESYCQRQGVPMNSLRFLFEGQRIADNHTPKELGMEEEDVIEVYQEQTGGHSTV
# [12] = target: T4, Small ubiquitin-related modifier 1; test: inhibitors of SUMO1 partner interactions, dose response, biochemical, FRET (AID 624383); type: functional; conditions: read-out: IC50_Mean
# [13] = target: Paired box protein Pax-8 (Homo sapiens, UniProt Q06710); test: inhibitors of PAX8-driven TPO luciferase reporter, dose response, RMG-I cells, cherry-pick (AID 687027); type: functional, cell-based;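 also: luciferase reporter driven by Pax8 target thyroperoxidase promoter measured by SteadyGlo luminescence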
# Sequence of Paired box protein Pax-8 (Q06710 whole entry): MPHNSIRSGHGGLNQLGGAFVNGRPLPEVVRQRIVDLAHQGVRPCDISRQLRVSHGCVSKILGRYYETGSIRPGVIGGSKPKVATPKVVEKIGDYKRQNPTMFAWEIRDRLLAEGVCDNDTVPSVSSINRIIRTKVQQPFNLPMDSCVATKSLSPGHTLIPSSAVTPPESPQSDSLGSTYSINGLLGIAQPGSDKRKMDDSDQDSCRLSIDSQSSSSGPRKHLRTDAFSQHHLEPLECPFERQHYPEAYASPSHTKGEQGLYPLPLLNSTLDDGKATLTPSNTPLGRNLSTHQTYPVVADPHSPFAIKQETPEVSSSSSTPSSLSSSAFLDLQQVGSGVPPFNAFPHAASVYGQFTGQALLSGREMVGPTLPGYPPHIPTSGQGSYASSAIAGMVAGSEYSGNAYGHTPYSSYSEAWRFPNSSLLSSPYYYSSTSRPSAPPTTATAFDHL
# [14] = IGROV1 ovarian cancer cell cytotoxicity, dose response, PAX8 inhibitor project, plate reader, dry powder samples (AID 743043); type: functional, cell-based; conditions: IGROV-1
# [15] = test system: A549; test: A549 cell toxicity, dose response, cytotoxicity control, plate reader, cherry-pick samples (AID 687028); type: functional, cell-based; conditions: Homo sapiens
# [16] = HEK293T cytotoxicity, dose response, cytotoxicity control for miR-122 modulator project, cell-based, inhibitor set, cherry-pick, set 2 (AID 720697); type: functional
# [17] = HEK293T cytotoxicity, dose response, cytotoxicity control for miR-122 modulator project, cell-based, activator set, cherry-pick (AID 720690); type: functional;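 also: HEK293T human cells scored for general mammalian cytotoxicity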
# [18] = HEK293 cell viability, dose response, counter-screen for EBV LMP1 inhibitor project, dry powder, set 2 (AID 624374); type: functional
# [19] = target: Cytochrome P450 2C19 (Homo sapiens, UniProt P33261); test: Cytochrome panel assay with activity outcomes. Panel member name: p450-cyp2c19 Compounds with AC50 equal or less than 10 uM are considered active; type: functional; conditions: read-out: AC50
# Sequence of Cytochrome P450 2C19 (P33261 whole entry): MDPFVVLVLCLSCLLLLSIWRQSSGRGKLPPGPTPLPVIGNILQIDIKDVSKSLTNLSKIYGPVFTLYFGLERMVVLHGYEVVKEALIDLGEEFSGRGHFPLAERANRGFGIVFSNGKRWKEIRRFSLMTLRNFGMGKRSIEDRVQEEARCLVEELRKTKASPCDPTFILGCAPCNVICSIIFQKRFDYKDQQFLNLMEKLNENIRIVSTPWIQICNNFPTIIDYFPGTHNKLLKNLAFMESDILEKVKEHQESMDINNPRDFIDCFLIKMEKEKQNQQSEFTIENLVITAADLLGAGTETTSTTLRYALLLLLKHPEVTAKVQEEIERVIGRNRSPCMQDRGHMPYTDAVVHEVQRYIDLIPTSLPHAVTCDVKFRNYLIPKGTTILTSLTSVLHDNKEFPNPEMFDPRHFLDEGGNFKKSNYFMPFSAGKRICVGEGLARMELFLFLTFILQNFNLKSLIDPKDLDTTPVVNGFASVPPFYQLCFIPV
# [20] = target: SWI/SNF-related matrix-associated actin-dependent regulator of chromatin subfamily A member 2 (Homo sapiens, UniProt P51531); test: Luminescence-based cell-based high throughput dose response assay to identify activators of the function of SWI/SNF related, matrix associated, actin dependent regulator of chromatin, subfamily a, member 2 (SMARCA2, BRM).; type: functional
# Sequence of SWI/SNF-related matrix-associated actin-dependent regulator of chromatin subfamily A member 2 (P51531 whole entry): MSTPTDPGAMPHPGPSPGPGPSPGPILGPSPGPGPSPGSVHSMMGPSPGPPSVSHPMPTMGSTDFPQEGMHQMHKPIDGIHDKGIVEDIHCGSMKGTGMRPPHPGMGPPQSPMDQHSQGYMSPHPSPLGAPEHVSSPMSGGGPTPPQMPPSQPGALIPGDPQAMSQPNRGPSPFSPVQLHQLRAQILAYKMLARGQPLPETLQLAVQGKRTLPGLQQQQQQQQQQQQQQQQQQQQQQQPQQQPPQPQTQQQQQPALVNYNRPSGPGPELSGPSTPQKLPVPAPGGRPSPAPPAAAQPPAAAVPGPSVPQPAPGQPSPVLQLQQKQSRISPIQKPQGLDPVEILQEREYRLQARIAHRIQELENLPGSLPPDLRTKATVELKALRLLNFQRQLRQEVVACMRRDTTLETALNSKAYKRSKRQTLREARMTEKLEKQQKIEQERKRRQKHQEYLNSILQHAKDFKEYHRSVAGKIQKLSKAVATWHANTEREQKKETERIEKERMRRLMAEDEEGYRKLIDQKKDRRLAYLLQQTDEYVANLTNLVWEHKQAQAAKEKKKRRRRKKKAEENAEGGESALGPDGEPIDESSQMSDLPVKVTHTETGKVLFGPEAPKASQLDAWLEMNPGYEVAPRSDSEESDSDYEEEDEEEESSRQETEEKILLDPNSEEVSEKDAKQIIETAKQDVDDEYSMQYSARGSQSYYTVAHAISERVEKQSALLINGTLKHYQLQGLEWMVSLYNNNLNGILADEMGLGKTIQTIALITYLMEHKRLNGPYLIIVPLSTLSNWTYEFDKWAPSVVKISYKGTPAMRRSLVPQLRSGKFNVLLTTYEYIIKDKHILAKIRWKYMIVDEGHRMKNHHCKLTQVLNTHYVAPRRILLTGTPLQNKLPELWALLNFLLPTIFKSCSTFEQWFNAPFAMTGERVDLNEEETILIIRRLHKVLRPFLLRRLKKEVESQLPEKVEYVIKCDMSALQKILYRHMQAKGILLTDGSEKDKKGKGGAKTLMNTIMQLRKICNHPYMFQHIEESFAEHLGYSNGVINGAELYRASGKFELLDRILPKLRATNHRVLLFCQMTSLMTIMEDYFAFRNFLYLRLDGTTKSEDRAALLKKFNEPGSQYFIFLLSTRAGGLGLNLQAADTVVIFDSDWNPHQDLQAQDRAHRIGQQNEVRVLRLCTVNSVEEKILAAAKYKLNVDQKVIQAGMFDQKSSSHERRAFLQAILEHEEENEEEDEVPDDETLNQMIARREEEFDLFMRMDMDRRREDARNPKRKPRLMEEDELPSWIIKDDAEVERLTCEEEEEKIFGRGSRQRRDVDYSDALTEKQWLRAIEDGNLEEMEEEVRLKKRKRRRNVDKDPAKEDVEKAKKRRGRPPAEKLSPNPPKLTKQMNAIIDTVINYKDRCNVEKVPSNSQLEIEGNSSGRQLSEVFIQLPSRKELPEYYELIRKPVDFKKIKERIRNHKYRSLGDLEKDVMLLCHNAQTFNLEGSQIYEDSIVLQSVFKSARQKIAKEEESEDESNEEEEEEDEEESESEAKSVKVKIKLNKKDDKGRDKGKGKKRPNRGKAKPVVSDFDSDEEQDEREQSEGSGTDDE
# [21] = Counterscreen for activators of the function of SWI/SNF related, matrix associated, actin dependent regulator of chromatin, subfamily a, member 2 (SMARCA2, BRM): Luminescence-based cell-based high throughput dose response assay to identify non-selective compounds using the VP16 reporter assay.; type: functional
# [22] = target: Albumin (Bos taurus, UniProt P02769); test: Counterscreen for inhibitors of T-cell receptor (TCR)-CD3 interaction: Fluorescence-based biochemical high throughput dose response assay to identify inhibitors of T-cell receptor (TCR)-CD3 interaction using a TAMRA-labeled BSA probe.; type: functional
# Sequence of Albumin (P02769 whole entry): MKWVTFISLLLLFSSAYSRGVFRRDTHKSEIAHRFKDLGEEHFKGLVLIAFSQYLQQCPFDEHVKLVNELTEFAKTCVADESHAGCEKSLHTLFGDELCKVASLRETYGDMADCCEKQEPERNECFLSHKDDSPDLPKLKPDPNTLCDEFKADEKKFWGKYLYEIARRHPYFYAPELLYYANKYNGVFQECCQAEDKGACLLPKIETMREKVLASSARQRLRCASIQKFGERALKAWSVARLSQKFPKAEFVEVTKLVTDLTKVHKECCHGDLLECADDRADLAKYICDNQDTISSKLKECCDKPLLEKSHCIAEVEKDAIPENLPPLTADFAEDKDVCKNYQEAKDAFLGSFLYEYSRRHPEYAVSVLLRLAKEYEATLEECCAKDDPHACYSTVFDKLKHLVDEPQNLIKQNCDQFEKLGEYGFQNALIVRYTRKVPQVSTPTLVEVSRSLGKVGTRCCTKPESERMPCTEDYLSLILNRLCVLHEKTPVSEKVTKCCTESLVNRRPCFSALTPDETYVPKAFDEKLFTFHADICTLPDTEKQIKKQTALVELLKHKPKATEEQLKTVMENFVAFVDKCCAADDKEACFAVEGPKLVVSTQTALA
# [23] = target: Large T antigen (Simian virus 40, UniProt P03070); type: functional, Betapolyomavirus macacae;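 also: Confirmatory-stage PubChem screen for compounds that inhibit SV40 T antigen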
# Sequence of Large T antigen (P03070 whole entry): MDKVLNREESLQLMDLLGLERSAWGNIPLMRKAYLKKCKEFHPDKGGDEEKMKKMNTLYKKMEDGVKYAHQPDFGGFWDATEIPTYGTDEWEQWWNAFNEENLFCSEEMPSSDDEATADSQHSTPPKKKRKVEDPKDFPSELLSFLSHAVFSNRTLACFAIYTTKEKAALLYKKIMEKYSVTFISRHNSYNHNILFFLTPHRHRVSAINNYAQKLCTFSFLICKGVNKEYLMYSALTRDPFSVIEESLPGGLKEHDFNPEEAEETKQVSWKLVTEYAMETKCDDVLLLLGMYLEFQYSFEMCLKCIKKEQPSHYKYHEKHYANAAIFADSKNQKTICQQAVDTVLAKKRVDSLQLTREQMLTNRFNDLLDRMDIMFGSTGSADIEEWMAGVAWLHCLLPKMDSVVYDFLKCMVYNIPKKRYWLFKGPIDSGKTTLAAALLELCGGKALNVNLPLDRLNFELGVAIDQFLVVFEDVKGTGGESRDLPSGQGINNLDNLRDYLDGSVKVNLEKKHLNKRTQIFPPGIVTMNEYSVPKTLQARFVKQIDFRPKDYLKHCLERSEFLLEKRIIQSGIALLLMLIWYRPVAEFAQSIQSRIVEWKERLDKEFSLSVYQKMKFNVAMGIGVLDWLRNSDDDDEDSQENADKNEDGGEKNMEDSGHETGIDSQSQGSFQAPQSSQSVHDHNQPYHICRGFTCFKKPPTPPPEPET
# [24] = target: FAD-linked sulfhydryl oxidase ALR (Homo sapiens, UniProt P55789); test: inhibitors of human ALR sulfhydryl oxidase, dose response, biochemical, H2O2 detection, luminescence, cherry-pick (AID 493248)
# Sequence of FAD-linked sulfhydryl oxidase ALR (P55789 whole entry): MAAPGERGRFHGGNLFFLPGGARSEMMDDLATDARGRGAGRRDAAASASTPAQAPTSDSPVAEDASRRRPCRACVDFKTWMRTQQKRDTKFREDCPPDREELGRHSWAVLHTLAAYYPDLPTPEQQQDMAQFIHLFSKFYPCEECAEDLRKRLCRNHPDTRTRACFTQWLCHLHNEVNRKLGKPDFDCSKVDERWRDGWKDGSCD
# [25] = target: T5, Rac GTPase-activating protein 1 (Homo sapiens, UniProt Q9H0H5); test: MgcRacGAP GTPase-activating activity inhibitors, confirmation, biochemical, ADP Hunter fluorescence, primary and confirmatory (AID 624330); type: functional
# T5 sequence (Q9H0H5 whole entry): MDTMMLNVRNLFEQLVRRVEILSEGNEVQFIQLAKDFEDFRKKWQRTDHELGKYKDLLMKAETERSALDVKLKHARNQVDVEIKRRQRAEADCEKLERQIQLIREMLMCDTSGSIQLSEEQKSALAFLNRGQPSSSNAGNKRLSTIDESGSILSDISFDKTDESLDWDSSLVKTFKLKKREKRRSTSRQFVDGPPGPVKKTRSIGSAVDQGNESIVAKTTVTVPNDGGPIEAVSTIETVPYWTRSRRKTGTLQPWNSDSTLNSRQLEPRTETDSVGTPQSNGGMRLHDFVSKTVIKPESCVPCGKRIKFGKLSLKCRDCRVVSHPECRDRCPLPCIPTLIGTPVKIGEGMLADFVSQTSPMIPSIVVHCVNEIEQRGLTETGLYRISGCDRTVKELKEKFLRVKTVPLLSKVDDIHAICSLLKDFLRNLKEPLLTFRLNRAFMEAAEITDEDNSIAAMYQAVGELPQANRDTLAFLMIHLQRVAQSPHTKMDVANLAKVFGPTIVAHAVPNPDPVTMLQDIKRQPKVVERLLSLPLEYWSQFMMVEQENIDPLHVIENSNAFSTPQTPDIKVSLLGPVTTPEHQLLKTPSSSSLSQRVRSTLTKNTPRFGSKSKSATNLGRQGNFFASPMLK
# [26] = target: T6, Heat shock factor protein 1 (Mus musculus, UniProt P38532); test: HSF1 potentiators in luciferase reporter cells, confirmation, cell-based, NIH3T3, luminescence, dose retest (AID 435004); type: functional;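 also: stress induced by proteasome inhibitor MG132 added 30 min after compound; luciferase reporter driven by HSF1 response element in NIH3T3 cells; actives raise luminescence as potentiators of the MG132 stress response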
# T6 sequence (P38532 whole entry): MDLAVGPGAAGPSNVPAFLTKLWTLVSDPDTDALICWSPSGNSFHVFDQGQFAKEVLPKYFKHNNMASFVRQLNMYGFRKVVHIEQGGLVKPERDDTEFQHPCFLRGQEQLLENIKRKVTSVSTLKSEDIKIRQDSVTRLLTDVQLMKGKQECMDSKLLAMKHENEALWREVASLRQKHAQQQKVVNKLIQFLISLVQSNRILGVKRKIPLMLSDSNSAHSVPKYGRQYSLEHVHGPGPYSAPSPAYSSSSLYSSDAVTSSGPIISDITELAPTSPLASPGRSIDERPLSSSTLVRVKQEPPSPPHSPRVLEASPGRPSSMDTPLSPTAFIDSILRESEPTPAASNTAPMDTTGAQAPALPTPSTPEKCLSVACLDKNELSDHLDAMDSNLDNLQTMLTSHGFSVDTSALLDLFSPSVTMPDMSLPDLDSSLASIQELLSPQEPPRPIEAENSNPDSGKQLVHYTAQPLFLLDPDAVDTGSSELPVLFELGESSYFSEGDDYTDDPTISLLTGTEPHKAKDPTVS
# Sequence of Mu-type opioid receptor (P35372 whole entry): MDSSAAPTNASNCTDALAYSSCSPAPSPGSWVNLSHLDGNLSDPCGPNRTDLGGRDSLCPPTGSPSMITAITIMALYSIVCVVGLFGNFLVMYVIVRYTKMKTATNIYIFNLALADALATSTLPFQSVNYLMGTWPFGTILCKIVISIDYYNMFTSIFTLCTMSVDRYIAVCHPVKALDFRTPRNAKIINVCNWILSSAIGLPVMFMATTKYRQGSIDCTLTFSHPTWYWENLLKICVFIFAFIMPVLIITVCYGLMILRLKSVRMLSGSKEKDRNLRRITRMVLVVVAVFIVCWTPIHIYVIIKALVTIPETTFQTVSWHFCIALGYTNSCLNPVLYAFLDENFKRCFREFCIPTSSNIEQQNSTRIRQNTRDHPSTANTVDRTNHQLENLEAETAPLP
compound,measurement,setting,value
Cc1ccsc1CN1CCN(c2ccccn2)CC1,EC50,[1],92.5 µM (inactive)
same,EC50,[2],0.282 µM (active)
CCOc1cc(/C=C2\SC(=S)N(NS(=O)(=O)c3ccccc3)C2=O)ccc1O,EC50,[3],> 150 µM (inactive)
same,EC50,[4],1.88 µM (active)
same,IC50,[5],3.73 µM (active)
same,IC50,[6],122 µM (inactive)
same,IC50,[7],83.3 µM (inactive)
same,IC50,[8],41.8 µM (inactive)
same,IC50,[9],2.41 µM (active)
COC(=O)c1ccc2c(c1)C(=O)/C(=C/c1ccc(O)cc1)O2,EC50,[10],> 53 µM (inactive)
same,IC50,[11],> 66.6 µM (inactive)
same,IC50,[12],7.4 µM (active)
C[C@@H]1CN([C@@H](C)CO)C(=O)Cc2cc(NS(=O)(=O)c3ccc(Cl)cc3)ccc2O[C@H]1CN(C)Cc1ccc(Cl)c(Cl)c1,AC50,[13],4.26 µM (active)
same,AC50,[14],38.5 µM (active)
CC(C)(C)NC(=O)C(c1cccc2ccccc12)n1c(=O)c(-c2ccccc2)nc2ccccc21 (stereo not given),AC50,[15],8.91 µM (active)
C[C@H](CO)N1C[C@H](C)[C@H](CN(C)Cc2ccccc2)Oc2cc(/C=C/c3ccccc3)ccc2S1(=O)=O,AC50,[16],34.5 µM (active)
same,AC50,[17],22.7 µM (active)
O=C(Cc1ccccn1)NCC[C@@H]1CC[C@@H](NC(=O)Nc2ccc(Cl)cc2)[C@H](CO)O1,AbsAC35,[18],175.41 µM
Cc1cccc(NC(=O)c2ccc([N+](=O)[O-])o2)n1,AC50,[19],20 µM (inconclusive)
same,EC50,[20],> 91.1 µM (inactive)
same,EC50,[21],> 91.1 µM (inactive)
Nc1ccc([N+](=O)[O-])cc1C(=O)NNC(=O)c1ccco1,IC50,[22],> 94.1 µM (inactive)
O=C(NCc1ccc2c(c1)OCO2)C(=O)NCC1OCCCN1S(=O)(=O)c1ccccc1 (stereo not given),AC50,[15],27.9 µM (active)
Oc1ccc(/C=N/Nc2ncnc3c2ncn3Cc2ccccc2)cc1O,IC50,[23],3.87 µM (active)
same,AC50,[24],2.19 µM (active)
same,IC50,[25],23 µM (active)
same,IC50,[22],> 94.1 µM (inactive)
CC(CCc1ccccc1)NC(=O)CN1CCc2ccccc2C1 (stereo not given),EC50,[26],> 260 µM (inactive)
same,EC50,[1],92.5 µM (inactive)
same,EC50,[2],76.1 µM (inactive)
